# Laboratory results reported in BindingDB's records for doi:10.1021/acschembio.6b00555 (University of Nebraska-Lincoln, 2016).
# Tests used:
# Assay in all cases: Fluorescence Polarization Assay
# Settings in all cases: pH 7.35
# [1] = target: T1, Tyrosine-protein kinase transforming protein Src [144-247,E177Q,S178L,E179A,T180R,T181V,C186A,K201L] (Rous sarcoma virus subgroup B (strain Schmidt-Ruppin), UniProt P63185, C186A/E177Q/E179A/K201L/S178L/T180R/T181V)
# T1 construct: 144-247
# Procedure: (§1) Three fluorescein-labeled peptide probes, FITC-sulfopeptide, FITC-phosphopeptide, and FITC-tyrosinepeptide (FITC, fluorescein isothiocyanate), were used. Individual peptide probes were dissolved in assay buffer containing potassium phosphate (20 mM, pH 7.35), NaCl (100 mM), DTT (2 mM), and bovine gamma globulin (0.1%). Aliquots of the peptide probe solution were distributed to 96-well fluorescence plate to reach a final concentration of 10 nM. After the addition of indicated amounts of SH2 domain protein, the assay solutions were mixed and incubated at RT in the dark for 25 min. Fluorescence polarization experimentswere performed on a Synergy H1 plate reader (BioTek Instruments, Inc.) equipped with standard filter cube (λEx = 485 nm, BP = 20 nm; λEm = 528 nm, BP = 20 nm). A standard sample layout in a 96-well plate was designed so that a single plate contains all the samples for one SH2 domain variant. Triplicate samples at each protein concentration were arrayed in the plat
# [2] = target: T2, Tyrosine-protein kinase transforming protein Src [144-247,E177R,S178L,E179Q,T180R,T181V,C186A,K201L] (Rous sarcoma virus subgroup B (strain Schmidt-Ruppin), UniProt P63185, C186A/E177R/E179Q/K201L/S178L/T180R/T181V)
# T2 construct: 144-247
# Procedure: as §1
# [3] = target: T3, Tyrosine-protein kinase transforming protein Src [144-247,T181V,C186A,K201L] (Rous sarcoma virus subgroup B (strain Schmidt-Ruppin), UniProt P63185, C186A/K201L/T181V)
# T3 construct: 144-247
# Procedure: as §1
# [4] = target: T4, Tyrosine-protein kinase transforming protein Src [144-247] (Rous sarcoma virus subgroup B (strain Schmidt-Ruppin), UniProt P00524)
# T4 construct: 144-247
# Procedure: as §1
# T2 sequence (P63185 144-247 E176R/S177L/E178Q/T179R/T180V/C185A/K200L): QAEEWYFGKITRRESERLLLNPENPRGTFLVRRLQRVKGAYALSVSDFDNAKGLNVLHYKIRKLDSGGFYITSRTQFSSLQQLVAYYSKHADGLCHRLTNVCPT
# T3 sequence (P63185 144-247 T180V/C185A/K200L): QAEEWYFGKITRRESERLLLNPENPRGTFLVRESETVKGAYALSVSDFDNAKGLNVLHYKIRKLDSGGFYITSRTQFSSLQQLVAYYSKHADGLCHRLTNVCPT
# T4 sequence (P00524 144-247): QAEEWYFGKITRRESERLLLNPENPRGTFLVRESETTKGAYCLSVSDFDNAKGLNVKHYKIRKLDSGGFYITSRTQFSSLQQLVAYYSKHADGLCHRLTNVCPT
# T1 sequence (P63185 144-247 E176Q/S177L/E178A/T179R/T180V/C185A/K200L): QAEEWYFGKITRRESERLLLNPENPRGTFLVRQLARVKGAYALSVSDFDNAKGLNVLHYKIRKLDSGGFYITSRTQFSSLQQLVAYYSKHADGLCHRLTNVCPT
Compound,Kd [1],Kd [2],Kd [3],Kd [4]
N[C@@H](Cc1ccc(OP(=O)(O)O)cc1)C(=O)O [Phosphotyrosine (pTyr)],7.7 nM,2.5 nM,4.9 nM,61 nM
N[C@@H](Cc1ccc(OS(=O)(=O)O)cc1)C(=O)O [Sulfotyrosine (sTyr)],10.4 nM,5.6 nM,349 nM,9620 nM
